From patent publication US9815851B2, “Pyrrolo carboxamides as modulators of orphan nuclear receptor RAR-related orphan receptor-gamma (RORγ, NR1F3) activity and for the treatment of chronic inflammatory and autoimmune diseases” (PHENEX PHARMACEUTICALS AG, priority 2011, dated 2017)
Like-named read-outs stand apart in the source and are kept apart here.

Tests used:
[1] = target: T1, RORγ ligand binding domain (LBD) (Homo sapiens, UniProt P51449); test: TR-FRET Activity Assay (ligand sensing, RORγ-LBD / coactivator peptide interaction, LANCE); format: biochemical
T1 construct: made in house; host or cells: E. coli BL-21 (BL3), vector pDEST15
T1 sequence (P51449 269-508 limits assumed): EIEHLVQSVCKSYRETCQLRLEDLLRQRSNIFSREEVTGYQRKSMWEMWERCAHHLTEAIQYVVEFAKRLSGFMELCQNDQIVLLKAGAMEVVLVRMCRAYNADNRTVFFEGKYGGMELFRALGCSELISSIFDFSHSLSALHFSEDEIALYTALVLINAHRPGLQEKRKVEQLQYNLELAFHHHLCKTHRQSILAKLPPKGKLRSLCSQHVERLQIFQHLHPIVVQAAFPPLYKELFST

RORγ = target: T2, RORγ (UniProt P51449); test: RORγ Gal4 Reporter Gene Assay in 293T cells (firefly and renilla luciferase); format: cell-based, human
T2 sequence (P51449 1-518): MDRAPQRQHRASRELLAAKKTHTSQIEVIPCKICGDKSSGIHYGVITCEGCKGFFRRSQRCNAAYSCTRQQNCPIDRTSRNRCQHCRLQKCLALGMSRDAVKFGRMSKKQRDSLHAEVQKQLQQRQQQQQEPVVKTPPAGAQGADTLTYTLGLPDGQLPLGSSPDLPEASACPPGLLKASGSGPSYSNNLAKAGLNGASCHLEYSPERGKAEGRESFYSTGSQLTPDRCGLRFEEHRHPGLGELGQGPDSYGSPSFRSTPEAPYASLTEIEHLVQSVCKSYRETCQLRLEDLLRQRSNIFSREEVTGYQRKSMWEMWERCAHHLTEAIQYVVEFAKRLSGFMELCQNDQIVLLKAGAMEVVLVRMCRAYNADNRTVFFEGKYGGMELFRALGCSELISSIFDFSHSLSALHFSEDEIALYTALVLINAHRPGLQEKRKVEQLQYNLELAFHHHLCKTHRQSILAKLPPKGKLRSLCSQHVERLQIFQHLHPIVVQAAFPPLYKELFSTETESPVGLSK

[2] = first value of the cell FRET/FF/REN, TR-FRET activity assay, read-out: pIC50 (FRET) (converted)
[3] = second value of the cell, Gal4 reporter gene assay in 293T cells, firefly luciferase
[4] = third value of the cell, Gal4 reporter gene assay in 293T cells, renilla normalised luciferase

SMILES	IC50 [1, 2] [nM]	pIC50 (FF) (RORγ; [3])	pIC50 (REN) (RORγ; [4])	IC50 [1] [nM]	pIC50 (FF) (RORγ)	pIC50 (REN) (RORγ)
Cc1c(C(=O)NC2CCOCC2)cc(-c2ccc(C(=O)NCC(F)(F)F)c(C(C)(C)C)c2)n1CC1CCCCC1 [6/2]	3160	6.5	6.4	–	–	–
Cc1c(C(=O)NC2CCOCC2)cc(-c2ccc(C(N)=O)c(C(C)(C)C)c2)n1CC1CCCCC1 [6/3]	–	–	–	7940	5.1/5.9/5.7	5.1/5.9/5.7
CNC(=O)c1ccc(-c2cc(C(=O)NC3CCOCC3)c(C)n2CC2CCCCC2)cc1C(C)(C)C [6/4]	10000	< 4.7	< 4.7	–	–	–
Cc1c(C(=O)NC2CCOCC2)cc(-c2ccc(C(=O)N(C)C)c(C(C)(C)C)c2)n1CC1CCCCC1 [6/5]	2510	6.5	6.4	–	–	–
Cc1c(C(=O)NC2CCOCC2)cc(-c2ccc(C(=O)NC3CCCCC3)c(C(C)(C)C)c2)n1CC1CCCCC1 [6/6]	–	–	–	631	6.2/6.8/6.7	6.2/6.8/6.7
Cc1c(C(=O)NC2CCOCC2)cc(-c2ccc(C(=O)NCC3CCCCC3)c(C(C)(C)C)c2)n1CC1CCCCC1 [6/7]	–	–	–	1000	6.0/6.5/6.4	6.0/6.5/6.4
Cc1c(C(=O)NC2CCOCC2)cc(-c2ccc(C(=O)NC(C)(C)C)c(C(F)(F)F)c2)n1CC1CCCCC1 [6/8]	–	–	–	10000	5.0/6.8/7.3	5.0/6.8/7.3
Cc1c(C(=O)NC2CCOCC2)cc(-c2ccc(C(=O)NC3CCCCC3)c(C(F)(F)F)c2)n1CC1CCCCC1 [6/9]	10000	6.4	6.2	–	–	–
Cc1c(C(=O)NC2COC2)cc(-c2cc(C(C)(C)C)cc(C(C)(C)C)c2)n1S(=O)(=O)N1CCC(C)CC1 [7/1]	316	6.7	6.8	–	–	–
Cc1c(C(=O)NC2COC2)cc(-c2cc(C(C)(C)C)cc(C(C)(C)C)c2)n1S(=O)(=O)N1CCCC(C)C1 (stereo not drawn) [7/2]	–	–	–	251	6.6/7.0/7.0	6.6/7.0/7.0
Cc1c(C(=O)NC2COC2)cc(-c2cc(C(C)(C)C)cc(C(C)(C)C)c2)n1S(=O)(=O)N(C)C1CCCCC1 [7/5]	–	–	–	316	6.5/6.3/6.4	6.5/6.3/6.4
Cc1c(C(=O)NC2COC2)cc(-c2cn(S(=O)(=O)N3CCCCC3)c3ccccc23)n1CC1CCCCC1 [9/1]	501	7.5	7.5	–	–	–
CCC(C)(C)NS(=O)(=O)c1ccc(-c2cc(C(=O)NC3COC3)c(C)n2CC2CCCCC2)cc1C(C)(C)C [9/7]	501	7.5	7.5	–	–	–
CCN(C(C)(C)C)S(=O)(=O)c1ccc(-c2cc(C(=O)NCC(C)(C)O)c(C)n2CC2CCCCC2)cc1C(C)(C)C [9/10]	–	–	–	316	6.5/7.7/7.2	6.5/7.7/7.2
Cc1c(C(=O)NC2COC2)cc(-c2cc(C(C)(C)C)nc(C(F)(F)F)c2)n1CC1CCCCC1 [9/15]	–	–	–	316	6.5/6.5/6.5	6.5/6.5/6.5
Cc1c(C(=O)NCC(C)(C)C(=O)NCCO)cc(-c2cc(C(C)(C)C)c3c(c2)C2(CCO3)CC2)n1CC1CCCCC1 [11/5]	–	–	–	316	6.5/7.3/7.4	6.5/7.3/7.4
Cc1c(C(=O)NC2COC2)cc(-c2cc(C(=O)N(C)C(C)(C)C)cc(C(F)(F)F)c2)n1CC1CCCCC1 [15/1]	–	–	–	2000	5.7/6.6/6.7	5.7/6.6/6.7
Cc1c(C(=O)NC2COC2)cc(-c2cc(C(=O)N(C)C(C)(C)C)cc(C(C)(C)C)c2)n1CC1CCCCC1 [15/4]	–	–	–	1580	5.8/7.3/7.3	5.8/7.3/7.3
Cc1c(C(=O)NC2COC2)cc(-c2cc(C(=O)NC(C)(C)C)cc(C(C)(C)C)c2)n1CC1CCCCC1 [15/5]	–	–	–	794	6.1/7.6/7.7	6.1/7.6/7.7

The next lines start with results.

IC50 [1, 2] [nM]	pIC50 (FF) (RORγ; [3])	pIC50 (REN) (RORγ; [4])	SMILES	IC50 [1] [nM]	pIC50 (FF) (RORγ)	pIC50 (REN) (RORγ)
251	6.6	6.7	Cc1c(C(=O)NC2COC2)cc(-c2cc(C(C)(C)C)cc(C(C)(C)C)c2)n1S(=O)(=O)N1CC(C)CC(C)C1 (stereo not drawn) [7/3]	–	–	–
200	7.1	7.1	Cc1c(C(=O)NC2COC2)cc(-c2cc(C(C)(C)C)cc(C(C)(C)C)c2)n1S(=O)(=O)N1CCCCCC1 [7/4]	–	–	–
398	6.6	6.5	Cc1c(C(=O)NC2COC2)cc(-c2cc(C(C)(C)C)cc(C(C)(C)C)c2)n1S(=O)(=O)N1CCC2(CCCC2)C1 [7/6]	–	–	–
398	6.5	6.6	Cc1c(C(=O)NCC(C)(C)O)cc(-c2cc(C(C)(C)C)cc(C(C)(C)C)c2)n1S(=O)(=O)N1CCCCC1 [7/7]	–	–	–
501	6.0	6.2	Cc1c(C(N)=O)cc(-c2cc(C(C)(C)C)cc(C(C)(C)C)c2)n1S(=O)(=O)N1CCCCC1 [7/8]	–	–	–
631	7.4	7.5	Cc1c(C(=O)NCC(C)(C)O)cc(-c2cn(S(=O)(=O)N3CCCCC3)c3ccccc23)n1CC1CCCCC1 [9/2]	–	–	–
316	7.1	7.1	Cc1c(C(=O)NCC(C)(C)O)cc(-c2cc(C(C)(C)C)cc(S(=O)(=O)N(C)C(C)(C)C)c2)n1CC1CCCCC1 [9/3]	–	–	–
631	7.1	7.2	Cc1c(C(=O)NC2COC2)cc(-c2ccc(S(=O)(=O)NC(C)(C)C)c(C(C)(C)C)c2)n1CC1CCCCC1 [9/4]	–	–	–
316	7.2	7.2	Cc1c(C(=O)NC2COC2)cc(-c2ccc(S(=O)(=O)N(C)C(C)(C)C)c(C(C)(C)C)c2)n1CC1CCCCC1 [9/5]	–	–	–
251	7.7	7.8	CCN(C(C)(C)C)S(=O)(=O)c1ccc(-c2cc(C(=O)NC3COC3)c(C)n2CC2CCCCC2)cc1C(C)(C)C [9/6]	–	–	–
631	7.0	7.1	Cc1c(C(=O)NCC(C)(C)O)cc(-c2ccc(S(=O)(=O)NC(C)(C)C)c(C(C)(C)C)c2)n1CC1CCCCC1 [9/8]	–	–	–
501	7.2	7.3	Cc1c(C(=O)NCC(C)(C)O)cc(-c2ccc(S(=O)(=O)N(C)C(C)(C)C)c(C(C)(C)C)c2)n1CC1CCCCC1 [9/9]	–	–	–
501	7.7	7.8	CCC(C)(C)NS(=O)(=O)c1ccc(-c2cc(C(=O)NCC(C)(C)O)c(C)n2CC2CCCCC2)cc1C(C)(C)C [9/11]	–	–	–
1580	6.3	6.5	Cc1c(C(=O)NC2COC2)cc(-c2cnc(NCC(C)(C)C)c(C(F)(F)F)c2)n1CC1CCCCC1 [9/12]	–	–	–
1000	6.0	6.1	Cc1c(C(=O)NC2COC2)cc(-c2cnc(OCC(C)(C)C)c(C(F)(F)F)c2)n1CC1CCCCC1 [9/13]	–	–	–
7940	6.3	6.2	Cc1c(C(=O)NC2COC2)cc(-c2cc(C(F)(F)F)c(=O)n(CC(C)(C)C)c2)n1CC1CCCCC1 [9/14]	–	–	–
251	6.9	6.9	Cc1c(C(=O)NCC(C)(C)C(=O)N(C)C)cc(-c2cc(C(C)(C)C)c3c(c2)C2(CCO3)CC2)n1CC1CCCCC1 [11/2]	–	–	–
1000	6.5	6.5	Cc1c(C(=O)NCC(C)(C)C(=O)NCCC(=O)O)cc(-c2cc(C(C)(C)C)c3c(c2)C2(CCO3)CC2)n1CC1CCCCC1 [11/3]	–	–	–
398	6.9	7.0	Cc1c(C(=O)NCC(C)(C)C(=O)NCCS(C)(=O)=O)cc(-c2cc(C(C)(C)C)c3c(c2)C2(CCO3)CC2)n1CC1CCCCC1 [11/4]	–	–	–
251	8.0	8.2	Cc1c(C(=O)NCC(C)(C)C(=O)NCCCO)cc(-c2cc(C(C)(C)C)c3c(c2)C2(CCO3)CC2)n1CC1CCCCC1 [11/6]	–	–	–
251	7.1	7.2	Cc1c(C(=O)NCC(C)(C)C(=O)NCCCCO)cc(-c2cc(C(C)(C)C)c3c(c2)C2(CCO3)CC2)n1CC1CCCCC1 [11/7]	–	–	–
1000	6.3	6.3	Cc1c(C(=O)NC2COC2)cc(-c2cc(C(=O)NC(C)C)cc(C(F)(F)F)c2)n1CC1CCCCC1 [15/2]	–	–	–
398	7.0	7.1	CCC(C)(C)NC(=O)c1cc(-c2cc(C(=O)NC3COC3)c(C)n2CC2CCCCC2)cc(C(F)(F)F)c1 [15/3]	–	–	–
